Publication PMC10484922, “Discovery of a selective and biologically active low-molecular weight antagonist of human interleukin-1β” (Nature Communications, 2023)
Several values for one entry are separate records, joined by “and”; a condition that tells them apart may be missing. Identical values can stand only once. Like-named read-outs stand apart in the source and are kept apart here.

Key:
[1] = target: T1, IL-1β (Homo sapiens, UniProt P01584); assay: SPR binding of compounds to immobilized hIL-1β; design: Mature hIL-1β was expressed in Escherichia coli; made in house; host or cells: Escherichia coli BL21 (DE3), pET17b
T1 sequence (P01584 117-269): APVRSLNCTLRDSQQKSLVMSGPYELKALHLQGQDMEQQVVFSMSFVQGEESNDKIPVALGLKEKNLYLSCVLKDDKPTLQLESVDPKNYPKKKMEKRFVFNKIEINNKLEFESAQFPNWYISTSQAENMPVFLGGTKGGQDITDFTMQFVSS
Description: All SPR experiments were performed with an SPR-32 instrument (Bruker Daltonics SPR, Hamburg, Germany). SPR chips were from XanTec bioanalytics GmbH (Düsseldorf, Germany).
C-terminally avi-tagged hIL-1β protein was immobilized onto a SAHC200M chip with a neutravidin-coated surface. Immobilization was performed with a protein injection of 0.02 mg/ml IL-1β diluted in PBS pH 7.5 (Gibco 70011-036, 10×), 0.05% Tween-20 for 5 min at 10 μl/min. The running buffer for binding studies of compounds was PBS pH 7.4, 0.05% Tween-20, and 2% DMSO. For the correction of small DMSO variations between samples, injections of 6 solvent samples ranging from 1% to 3% DMSO were run. Compound measurements were performed in MICK mode (multiple injection cycles kinetic) with a dose–response of 10 concentrations. Dissociation constants for compounds (KD) were obtained by determining steady-state fit that followed the 1:1 Langmuir model.
Data analysis was performed with the Sierra Analyzer 3.4.0 software from Bruker. Signal intensities were corrected for nonspecific binding to the surface by subtracting intensities from the reference surface from those of the hIL-1β surfaces (first reference subtraction) and by subtracting the buffer injection (second reference subtraction). KD values were carried out by determining a reporting point close to the end of the injection, used for steady-state fit, in addition to a kinetic fit delivering kon- and koff-values; both fitting models followed the 1:1 Langmuir equation.
Supplementary Figure 3. De termination of binding af fi nit ie s for se l ec ted ana l ogues of 1 by SPR. a - d Gr ap hs of exemplary experimen ts are given , where the sat urat ion of hI L-1b immobil ized on a chip was monitored at various concentrations of compound 3, 12, 10, and 11, respectively. Th e saturati on reached at equ ilibri um (insert) was plo tt ed versus the admini stered concentration and the equ ilibri um bin ding constant was derived from a non-li near lea st square fitting routine. e equ ilibri um and f kinetic bin ding of (S)-2 to IL-1b (kon = 1. 15 x 105 M-1 s-1 and koff = 0. 12 s-1).

[2] = target: T1, IL-1β; assay: protein-observed 1H-13C-HMQC NMR binding (I/Io of Leu60 Cδ1H3); design: Mature hIL-1β was expressed in Escherichia coli; made in house; host or cells: Escherichia coli BL21 (DE3), pET17b; settings: for I/Io (ratio of peak intensities of Leu60 Cδ1H3 in 1H-13C-HMQC spectra in presence and absence of ligand): hIL-1β 50 µM, 500 µM compound; for NMR I/Io values, Mean / NMR I/Io values, individual experiments (Exp1-2): source data
Description: ^1H–^13C- and ^1H–^15N-HMQC spectra were recorded on Bruker AVANCE 600 MHz and 800 MHz spectrometers equipped with TXI-cryocooled probeheads. In ligand binding experiments, protein concentrations were typically 50 μM in PBS, pH 7.4. Backbone assignments of hIL-1β in the ligand-bound state and unliganded state were obtained by a combination of a 3D triple resonance experiment HNCACB and a ^15N-edited NOESY spectrum, which were processed using TOPSPIN 3.2 and analyzed using CcpNmr AnalysisAssign 3.1.0[46]. ^15N-CEST experiments were run at weak B1 radiofrequency fields of 25 and 12.5 Hz on a Bruker AVANCE 800 MHz spectrometer with 113 increments and a total sweep width of 28 ppm in the pseudo-3D dimension. Peak intensities were extracted by fitting pseudo-Voigt lineshape models using peakipy (https://github.com/j-brady/peakipy). Fitted peak intensities were subsequently used to generate CEST profiles, and exchange parameters were fitted using ChemEx (https://github.com/gbouvignies/ChemEx).
Supplementary Figure 2. 13C-NMR and 19F-NMR reporter assays to monitor early
13C-HMQC spectra of hIL-1b (50 µM) were acquired in the presence (red) and absence (blue) of 500
µM compound and rows were extracted at the w1-frequency of the peak corresponding to Leu60 […]

[3] = target: T1, IL-1β; assay: TR-FRET IL-1β/hIL-1R1 receptor displacement assay; format: biochemical; settings: read-out: TR-FRET IL-1β IC50
Description: After 1 h incubation at room temperature, hIL-1R1 (1–332; Alexa 647 labeled; 50 nM final concentration) and anti-His-Europium W1024 (Perkin Elmer; Cat.No. AD0401, 1 nM final concentration) were added to a final volume of 10 μl per well. […] All experiments were run in triplicates.

[4] = target: T1, IL-1β; assay: 19F-reporter displacement assay with (S)-1 as probe; format: binding; design: Mature hIL-1β was expressed in Escherichia coli; made in house; host or cells: Escherichia coli BL21 (DE3), pET17b
Description: Protein and reporter concentrations were 10 and 40 μM, respectively. To account for changes in sample homogeneity, samples contained 1-(2,2,2-trifluoroacetyl)piperidine-4-carboxylic acid as an internal reference for scaling signal intensities. Three concentrations of the competitor were typically measured, and the related displacement of the probe was converted into Ki-values according to Dalvit and Vulpetti[17]. […] This process was automated with FRPipe, an in-house developed Python script (https://github.com/Novartis/FRPipe) that allows for streamlined analysis of such experiments. […] For visual inspection, an overview containing relevant ^19F peaks, fitting curves, and proton spectra was plotted.
Supplementary Figure 2. 13C-NMR and 19F-NMR reporter assays to monitor early structure activity relationships of analogues of 1. a, b Early structure activity relationships monitored by protein-observed and c-f 19F-NMR reporter assays, exemplified for compound 8. a 1H-13C-HMQC spectra of hIL-1b (50 µM) were acquired in the presence (red) and absence (blue) of 500 µM compound and rows were extracted at the w1-frequency of the peak corresponding to Leu60 Cd1H3. b The degree of protein binding was estimated from the ratio I/I0, where I and I0 correspond to the signal in the presence and absence of compound, respectively. c For the assessment of the KI-values, the signal intensity of a reporter molecule (S)-1 was monitored in 19F-transverse relaxation experiments run in the absence and presence of increasing amounts of compound. d All intensities were scaled to the intensity of an internal standard (all signals in panel c and d are shifted on the X-axis for clarity). e KI-values were retrieved from theoretical binding curves calculated for each compound concentration8. f One-dimensional 1H-NMR spectra were recorded for each assay mixture to assess the structural integrity and solubility of the compound in the sample.
(1 picture or pasted object on this page, not shown here)

[5] = target: T2, IL-1α (Homo sapiens, UniProt P01583); assay: TR-FRET IL-1α/hIL-1R1 receptor displacement assay; format: biochemical; settings: read-out: TR-FRET IL-1α IC50
T2 sequence (P01583 113-271): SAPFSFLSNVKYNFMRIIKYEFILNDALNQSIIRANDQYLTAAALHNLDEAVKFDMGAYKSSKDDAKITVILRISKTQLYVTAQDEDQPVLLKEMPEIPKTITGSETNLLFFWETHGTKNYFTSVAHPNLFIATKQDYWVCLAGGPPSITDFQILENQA
Description: After 1 h incubation at room temperature, hIL-1R1 (1–332; Alexa 647 labeled; 50 nM final concentration) and anti-His-Europium W1024 (Perkin Elmer; Cat.No. AD0401, 1 nM final concentration) were added to a final volume of 10 μl per well. After 1 h of incubation at room temperature, time-resolved fluorescence was measured at λexc = 320 ± 20 nm, λem = 620 ± 25 nm/665 ± 25 nm using a Pherastar FSX plate reader. All experiments were run in triplicates. The data provided a typical saturation-binding curve, and the IC50 values were calculated by fitting the results to the Hill equation using Prism 7.0 and the in-house software Helios.

[6] = source data, read-out: SPR Kd, Mean
[7] = source data, read-out: SPR Kd, individual experiments (Exp1-5)
[8] = steady-state fit, 1:1 Langmuir, read-out: SPR KD
[9] = 19F-reporter Ki, protein 10 μM, reporter (S)-1 40 μM
[10] = 19F-reporter, individual experiments (Exp1-58), source data

SMILES | Kd [1, 6] [µM] | Kd [1, 7] | Kd [1, 8] [µM] | I/Io (ratio of peak intensities of Leu60 Cδ1H3 in 1H-13C-HMQC spectra in presence and absence of ligand) [2] | NMR I/Io values, Mean [2] | NMR I/Io values, individual experiments (Exp1-2) [2] | IC50 [3] [µM] | Ki [4, 9] [µM] | Ki [4, 10] | binding to hIL-1β by protein-observed NMR [2] | IC50 [5] [µM] | Ki ([4]; protein 10 μM, reporter (S)-1 40 μM, read-out: 19F-reporter Ki) [µM] | Ki ([4]; source data, read-out: 19F-reporter, individual experiments (Exp1-58))
Cc1ccc2c(c1)NC(=O)C2(O)c1cc(C(C)C)ccc1O (stereo not drawn) [Compound 3] | 173 | 174 µM and 171 µM | 172 ± 2 | 0.19 ± 0.03 (N = 2) | 0.19 | 0.17 and 0.21 | > 400 | 151 ± 78 | 206 µM and 96 µM |  |  |  | 
Cc1ccc2c(c1)N(C)C(=O)C2(O)c1cc(C(C)C)ccc1O (stereo not drawn) [Compound 4] |  |  |  | 0.98 ± 0.06 (N = 2) | 0.98 | 0.94 and 1.02 | > 500 | > 1000 |  | lack of binding |  |  | 
COc1ccc(Cl)cc1C1(O)C(=O)Nc2cc(C(F)(F)F)ccc21 (stereo not drawn) [Compound 5] |  |  |  | 0.99 ± 0.06 (N = 2) | 0.99 | 0.95 and 1.03 | > 530 | > 1000 |  | lack of binding |  |  | 
O=C1Nc2ccccc2C1(O)c1cc(Cl)ccc1O (stereo not drawn) [Compound 6] |  |  |  | 0.59 ± 0.03 (N = 2) | 0.59 | 0.57 and 0.61 | > 500 | > 1000 |  | decreases protein binding |  |  | 
O=C1Nc2cc(C(F)(F)F)ccc2C1(O)c1ccccc1O (stereo not drawn) [Compound 7] |  |  |  | 0.45 ± 0.05 (N = 2) |  | 0.41 and 0.48 | > 500 | > 1000 |  | decreases protein binding |  |  | 
Cc1ccc2c(c1)NC(=O)C2(O)c1cc(Cl)ccc1O (stereo not drawn) [Compound 8] |  | 312 µM (2×) and 158 µM | 261 ± 89 | 0.18 ± 0.004 (N = 2) | 0.18 | 0.18 | > 200 | 312 ± 124 | 110 µM and 195 µM and 206 µM and 210 µM and 215 µM and 223 µM and 233 µM and 254 µM (2×) and 260 µM (2×) and 120 µM and 261 µM and 262 µM and 268 µM and 278 µM and 281 µM and 282 µM and 283 µM and 287 µM and 292 µM and 293 µM and 133 µM and 295 µM and 309 µM and 317 µM and 325 µM and 331 µM (3×) and 337 µM and 338 µM and 340 µM and 162 µM and 345 µM and 362 µM and 382 µM and 387 µM and 393 µM and 395 µM and 399 µM and 427 µM and 439 µM (2×) and 164 µM and 454 µM and 456 µM and 471 µM and 475 µM and 580 µM and 600 µM and 622 µM (2×) and 86 µM and 183 µM (2×) and 184 µM (2×) |  | > 200 |  | 
O=C1Nc2cc(Cl)ccc2C1(O)c1cc(Cl)ccc1O (stereo not drawn) [Compound 9] |  |  |  | 0.3 (N = 1) |  |  |  | 172 ± 35 | 197 µM and 147 µM |  |  |  | 
Cc1ccc(O)c(C2(c3cn[nH]c3)C(=O)Nc3cc(C(F)(F)F)ccc32)c1 (stereo not drawn) [Compound 12] | 138 | 145 µM and 130 µM | 138 ± 11 | <0.1 (N = 1) |  |  | > 200 |  |  |  | > 200 | 90 ± 41 | 119 µM and 61 µM
Cc1ccc(O)c(C2(O)C(=O)Nc3cc(C(F)(F)F)ccc32)c1 (stereo not drawn) [Compound 13] |  |  | > 1000 | 0.4 (N = 1) |  |  |  |  |  |  |  |  | 
